Results on one molecule are retold here after publication PMC5603267 (Cell metabolism, 2017).

Molecules are shown by their SMILES.

For test [1], the target named is acetyl-CoA carboxylase 1 (ACC1) (Homo sapiens, UniProt Q13085). Description: purified ACC incubated with MK-4074, ATP, acetyl-CoA and NaH14CO3. In kind it is biochemical.
Test [2] deals with acetyl-CoA carboxylase 2 (ACC2) (Homo sapiens, UniProt O00763). The test is described as above. Format: biochemical.
Chain of acetyl-CoA carboxylase 2 (ACC2) (O00763 whole entry): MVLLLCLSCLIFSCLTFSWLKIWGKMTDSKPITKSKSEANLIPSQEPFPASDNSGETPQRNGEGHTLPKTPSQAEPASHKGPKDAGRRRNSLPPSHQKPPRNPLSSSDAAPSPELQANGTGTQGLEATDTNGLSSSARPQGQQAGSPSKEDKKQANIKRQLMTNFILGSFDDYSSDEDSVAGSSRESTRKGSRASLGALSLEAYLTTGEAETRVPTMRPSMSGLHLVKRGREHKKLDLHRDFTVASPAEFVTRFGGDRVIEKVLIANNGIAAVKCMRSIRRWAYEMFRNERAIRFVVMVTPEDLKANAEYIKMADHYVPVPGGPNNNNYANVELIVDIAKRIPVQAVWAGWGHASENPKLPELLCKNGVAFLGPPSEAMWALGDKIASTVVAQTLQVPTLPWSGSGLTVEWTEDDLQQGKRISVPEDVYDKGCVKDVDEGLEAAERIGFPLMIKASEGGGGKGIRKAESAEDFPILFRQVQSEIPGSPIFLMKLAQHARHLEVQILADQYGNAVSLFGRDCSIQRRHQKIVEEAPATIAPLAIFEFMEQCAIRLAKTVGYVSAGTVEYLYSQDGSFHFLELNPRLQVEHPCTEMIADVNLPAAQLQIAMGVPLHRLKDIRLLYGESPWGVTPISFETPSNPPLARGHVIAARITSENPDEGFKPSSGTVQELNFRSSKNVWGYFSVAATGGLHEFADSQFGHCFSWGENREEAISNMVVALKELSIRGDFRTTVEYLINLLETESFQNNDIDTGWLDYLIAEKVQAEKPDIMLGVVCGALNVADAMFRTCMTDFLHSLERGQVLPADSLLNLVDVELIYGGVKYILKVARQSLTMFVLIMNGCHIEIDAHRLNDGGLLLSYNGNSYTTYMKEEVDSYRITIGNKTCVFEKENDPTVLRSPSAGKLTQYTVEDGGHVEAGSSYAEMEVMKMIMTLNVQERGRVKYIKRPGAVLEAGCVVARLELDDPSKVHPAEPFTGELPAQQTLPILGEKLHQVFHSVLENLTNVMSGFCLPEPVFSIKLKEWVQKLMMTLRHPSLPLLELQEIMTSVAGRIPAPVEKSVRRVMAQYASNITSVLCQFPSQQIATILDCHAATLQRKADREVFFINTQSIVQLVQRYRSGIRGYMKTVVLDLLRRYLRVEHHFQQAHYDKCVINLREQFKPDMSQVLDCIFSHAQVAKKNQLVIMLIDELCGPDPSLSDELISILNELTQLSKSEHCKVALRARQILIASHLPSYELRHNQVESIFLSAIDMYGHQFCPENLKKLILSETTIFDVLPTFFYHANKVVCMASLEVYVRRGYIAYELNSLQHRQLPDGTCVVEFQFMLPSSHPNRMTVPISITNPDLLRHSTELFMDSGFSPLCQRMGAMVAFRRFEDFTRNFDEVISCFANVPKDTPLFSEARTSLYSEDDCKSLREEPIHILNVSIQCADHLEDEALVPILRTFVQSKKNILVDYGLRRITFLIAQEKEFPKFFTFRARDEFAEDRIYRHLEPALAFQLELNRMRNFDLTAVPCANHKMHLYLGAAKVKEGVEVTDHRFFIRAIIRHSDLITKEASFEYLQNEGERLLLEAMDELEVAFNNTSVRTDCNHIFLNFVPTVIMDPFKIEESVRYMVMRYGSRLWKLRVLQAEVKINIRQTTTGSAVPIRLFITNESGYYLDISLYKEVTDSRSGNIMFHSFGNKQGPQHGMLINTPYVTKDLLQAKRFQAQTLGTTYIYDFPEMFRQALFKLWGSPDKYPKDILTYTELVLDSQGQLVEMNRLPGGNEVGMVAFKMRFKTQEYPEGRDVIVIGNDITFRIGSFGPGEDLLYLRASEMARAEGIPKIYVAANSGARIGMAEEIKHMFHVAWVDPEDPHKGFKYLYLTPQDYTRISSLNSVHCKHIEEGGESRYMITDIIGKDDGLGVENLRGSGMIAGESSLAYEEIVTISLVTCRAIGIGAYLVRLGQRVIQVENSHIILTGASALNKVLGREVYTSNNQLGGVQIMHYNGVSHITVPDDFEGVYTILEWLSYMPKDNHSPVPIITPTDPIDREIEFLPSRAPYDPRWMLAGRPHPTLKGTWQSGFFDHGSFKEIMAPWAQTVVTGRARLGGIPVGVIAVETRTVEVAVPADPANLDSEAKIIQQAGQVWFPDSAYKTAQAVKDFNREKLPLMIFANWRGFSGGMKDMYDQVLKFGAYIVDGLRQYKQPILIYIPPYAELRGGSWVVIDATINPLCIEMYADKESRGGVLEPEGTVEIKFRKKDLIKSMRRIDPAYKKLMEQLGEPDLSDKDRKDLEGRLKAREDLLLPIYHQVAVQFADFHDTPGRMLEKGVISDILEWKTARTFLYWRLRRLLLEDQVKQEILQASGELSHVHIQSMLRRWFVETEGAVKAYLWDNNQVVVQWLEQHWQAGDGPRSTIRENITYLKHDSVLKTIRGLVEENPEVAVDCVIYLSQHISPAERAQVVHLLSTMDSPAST

In the case of `COc1cc(C(=O)N2CCC3(CC2)CC(=O)c2cc(-c4cncc(C(=O)O)c4)ccc2O3)cc2c1c(C)cn2C1CC1` [MK-4074], the IC50 in test [1] and in test [2] was approximately 3 nM in each case.
